Source: patent US20240228572A1 (i2o Therapeutics, Inc., priority 2020, published 2024)
*1 amine or outer side, *2 acyl side, *3 side chain or, on linkers, in order; H or OH if unused. Where a SMILES comes first, the peptide text is derived from it. Bridges are numbered along the chain shown (N, C = ends). Side-chain parts run from the residue outwards. [ ]: non-standard residue; d: D form. The star is where a group is joined. C20 diacid = O=C(O)CCCCCCCCCCCCCCCCCCC(=O)*; γGlu = O=C(O)[C@H](CCC(=O)[*:2])N[*:1]; AEEA = NCCOCCOCC(=O)O; Aib = CC(C)(N)C(=O)O

Assays:
[1] = target: T1, human Glucagon receptor (GCGR) (Homo sapiens, UniProt P47871); assay: cAMP accumulation assay, CHO-K1 cells expressing human GCGR; format: cell-based; conditions: mean pEC50, Table 10
T1 construct: A cDNA fragment encoding the full-length open reading frame of the human GCGR; expressed in transfected cells; host or cells: CHO-K1, pcDNA3.1+, Lipofectamine 2000
Source text: (§1) In the presence of the non-specific cAMP/cGMP phosphodiesterase inhibitor, 3-isobutyl-1-methylxanthine (IBMX), accumulating cAMP can be measured in vitro using common detection methods. Thus, it is possible to estimate an in vitro potency (pEC50) for peptides activating each of these receptors using fit dose-response curves for cAMP accumulation.
A cDNA fragment encoding the full-length open reading frame of the cynomolgus monkey GLP-1R (Genebank accession #XM_028847603 was cloned into pcDNA3.1+ for expression in CHO-K1 cells. A cDNA fragment encoding the full-length open reading frame of the human GCGR (Genebank accession #NM_000160 was cloned into pcDNA3.1+ for expression in CHO-K1 cells. A cDNA fragment encoding the full-length open reading frame of the rat GCGR (Genebank accession #NM_12091 was cloned into pcDNA3.1+ for expression in CHO-K1 cells. A cDNA fragment encoding the full-length open reading frame of the cynomolgus monkey GCGR (Genebank accession #XM_005585255 was cloned into pcDNA3.1+ for expression in CHO-K1 cells.
(§2) On day 1, CHO-K1 cells were plated at 1.5 million cells per T75 flask in 90% F12-K media supplemented with 10% FBS. On day 3 cells were transfected with 40 mcg of each expression plasmid using Lipofectamine 2000 transfection reagent. On day 5, cells were dispensed at 1000 cells per well in white 384-well OptiPlates in 5 mcL of assay buffer consisting of 1×HBSS, 5 mM HEPES, 0.5 mM IBMX, and 0.1% casein.
(§3) Peptides were serially diluted 4-fold in assay buffer to final concentrations ranging from 1×10^−9 M to 9.5×10^−16 M. Two assay controls consisting of 50 mcM forskolin (cAMP system maximum) or assay buffer only (cAMP system minimum) were also prepared. Five microliters of each peptide-concentration, or assay control, was added to triplicate wells and incubated for thirty minutes at room temperature. During this incubation step a 4× europium labelled cAMP tracer solution and a 4× Ulight®-anti-cAMP solution (consisting of an anti-cAMP monoclonal antibody labelled with Ulight™ dye) was prepared according to the manufacturer's protocol (PerkinElmer LANCE Ultra cAMP kit). Following this incubation, 5 mcL europium labelled cAMP and 5 mcL Ulight anti-cAMP antibody was added to each well. The plate was covered to prevent evaporation and incubated for 60 minutes at room temperature in the dark. Plates were read on an Envision fluorescent plate reader (PerkinElmer).
(§4) Test values were first normalized to the system maximum and system minimum averaged values in Excel using the formula: (test value−system min average)/(system max average -system min average)*100. Normalized test values represent a baseline corrected percentage of the system maximum cAMP response induced by forskolin. Data from up to 3 replicate tests were analyzed for each peptide. Potency values were estimated using GraphPad Prism software (v7.04) by fitting data to a 4-parameter logistic curve model: Y=Bottom+(Top−Bottom)/(1+10^((LogEC50−X))). The Hill slope was constrained to 1.0. EC50 values were converted to pEC50 values using the formula: pEC50=−Log (EC50).

[2] = target: T2, human GLP-1 receptor (GLP-1R) (Homo sapiens, UniProt P43220); assay: cAMP accumulation assay, CHO-K1 cells stably expressing human GLP-1R; format: cell-based; conditions: cAMP accumulation, mean pEC50, Table 10
T2 construct: expressed in transfected cells
Protocol: as §1
CHO-K1 cells stably expressing human GLP-1R (Genebank accession #NM_002062) were grown in 90% F12-K media supplemented with 10% FBS and 250 μg/ml G418.
as §2, §3, §4

T1 sequence (P47871 26-477): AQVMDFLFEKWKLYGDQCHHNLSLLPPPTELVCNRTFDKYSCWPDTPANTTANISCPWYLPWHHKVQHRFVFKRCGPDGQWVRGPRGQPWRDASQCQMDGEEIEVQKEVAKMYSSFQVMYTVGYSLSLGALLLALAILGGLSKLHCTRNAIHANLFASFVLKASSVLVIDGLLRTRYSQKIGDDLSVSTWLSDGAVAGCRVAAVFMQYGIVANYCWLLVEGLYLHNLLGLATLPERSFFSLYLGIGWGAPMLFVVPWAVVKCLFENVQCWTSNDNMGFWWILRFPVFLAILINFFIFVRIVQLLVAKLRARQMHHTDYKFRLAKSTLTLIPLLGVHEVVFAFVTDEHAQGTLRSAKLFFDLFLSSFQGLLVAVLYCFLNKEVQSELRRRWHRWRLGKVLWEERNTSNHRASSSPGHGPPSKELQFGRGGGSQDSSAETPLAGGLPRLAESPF
T2 sequence (P43220 24-463): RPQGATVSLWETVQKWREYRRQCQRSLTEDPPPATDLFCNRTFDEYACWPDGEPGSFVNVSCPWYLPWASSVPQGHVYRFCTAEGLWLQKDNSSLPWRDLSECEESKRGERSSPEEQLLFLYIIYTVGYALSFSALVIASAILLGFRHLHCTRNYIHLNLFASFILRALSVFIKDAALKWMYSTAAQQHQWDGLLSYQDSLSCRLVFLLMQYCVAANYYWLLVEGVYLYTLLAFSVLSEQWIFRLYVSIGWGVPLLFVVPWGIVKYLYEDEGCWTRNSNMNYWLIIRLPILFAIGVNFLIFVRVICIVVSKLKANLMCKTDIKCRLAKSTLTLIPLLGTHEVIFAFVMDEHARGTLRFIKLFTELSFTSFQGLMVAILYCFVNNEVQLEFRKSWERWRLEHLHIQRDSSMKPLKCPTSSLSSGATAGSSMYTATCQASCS

Q: Which results are given for `CC(C)C[C@H](NC(=O)[C@H](Cc1ccc(O)cc1)NC(=O)[C@H](CCCCN)NC(=O)[C@H](CO)NC(=O)[C@H](Cc1ccc(O)cc1)NC(=O)[C@H](CC(=O)O)NC(=O)[C@H](CO)NC(=O)[C@@H](NC(=O)[C@H](Cc1ccccc1)NC(=O)[C@@H](NC(=O)CNC(=O)[C@H](Cc1c[nH]cn1)NC(=O)[C@H](CO)NC(=O)[C@@H](N)Cc1ccc(O)cc1)[C@@H](C)O)[C@@H](C)O)C(=O)N[C@@H](CC(=O)O)C(=O)N[C@@H](CCCCNC(=O)CC[C@H](NC(=O)CC[C@H](NC(=O)COCCOCCNC(=O)CCCCCCCCCCCCCCCCCCC(=O)O)C(=O)O)C(=O)O)C(=O)N[C@@H](CCCCN)C(=O)N[C@@H](Cc1ccc(O)cc1)C(=O)N[C@@H](C)C(=O)N[C@H]1CCC(=O)NCCCC[C@@H](C(=O)N[C@@H](Cc2c[nH]c3ccccc23)C(=O)N[C@@H](CC(C)C)C(=O)N[C@@H](CCC(=O)O)C(=O)N[C@@H](CCC(=O)O)C(=O)N[C@@H](CCC(=O)O)C(=O)N2CCC[C@H]2C(=O)N[C@@H](CO)C(=O)N[C@@H](CO)C(=O)NCC(=O)N[C@@H](C)C(=O)N2CCC[C@H]2C(=O)N2CCC[C@H]2C(=O)N2CCC[C@H]2C(=O)N[C@@H](CO)C(=O)O)NC(=O)[C@H](C(C)C)NC(=O)[C@H](Cc2ccccc2)NC(=O)[C@H](CCCCN)NC1=O` [Compound A25] (H-YSHGTFTSDYSKYLDK([γGlu-γGlu-AEEA-C20 diacid])KYAEKFVKWLEEEPSSGAPPPS-OH; lactam 20-24)?
A: EC50 [1]: 1.26 pM; EC50 [2]: > 1000 pM

Q: How did the EC50 [1] turn out when `CC(C)C[C@H](NC(=O)[C@H](Cc1ccc(O)cc1)NC(=O)[C@H](CCCCN)NC(=O)[C@H](CO)NC(=O)[C@H](Cc1ccc(O)cc1)NC(=O)[C@H](CC(=O)O)NC(=O)[C@H](CO)NC(=O)[C@@H](NC(=O)[C@H](Cc1ccccc1)NC(=O)[C@@H](NC(=O)CNC(=O)[C@H](Cc1c[nH]cn1)NC(=O)[C@H](CO)NC(=O)[C@@H](N)Cc1ccc(O)cc1)[C@@H](C)O)[C@@H](C)O)C(=O)N[C@@H](CC(=O)O)C(=O)N[C@@H](CCCCNC(=O)CC[C@H](NC(=O)CC[C@H](NC(=O)COCCOCCNC(=O)CCCCCCCCCCCCCCCCCCC(=O)O)C(=O)O)C(=O)O)C(=O)N[C@@H](CCCCN)C(=O)N[C@@H](Cc1ccc(O)cc1)C(=O)N[C@@H](C)C(=O)N[C@H]1CCC(=O)NCCCC[C@@H](C(=O)N[C@@H](Cc2c[nH]c3ccccc23)C(=O)N[C@@H](CC(C)C)C(=O)N[C@@H](CCC(=O)O)C(=O)N[C@@H](CC(=O)O)C(=O)N[C@@H](CCC(=O)O)C(=O)N2CCC[C@H]2C(=O)N[C@@H](CO)C(=O)N[C@@H](CO)C(=O)NCC(=O)N[C@@H](C)C(=O)N2CCC[C@H]2C(=O)N2CCC[C@H]2C(=O)N2CCC[C@H]2C(=O)N[C@@H](CO)C(=O)O)NC(=O)[C@H](C(C)C)NC(=O)[C@H](Cc2ccccc2)NC(=O)[C@H](CCC(=O)O)NC1=O` [Compound A12] (H-YSHGTFTSDYSKYLDK([γGlu-γGlu-AEEA-C20 diacid])KYAEEFVKWLEDEPSSGAPPPS-OH; lactam 20-24) was run?
A: 1.58 pM

Q: What about the EC50 [2] of the same compound?
A: > 1000 pM

Q: How did the EC50 [1] turn out when `CC(C)C[C@H](NC(=O)[C@H](Cc1ccc(O)cc1)NC(=O)[C@H](CCCCN)NC(=O)[C@H](CO)NC(=O)[C@H](Cc1ccc(O)cc1)NC(=O)[C@H](CC(=O)O)NC(=O)[C@H](CO)NC(=O)[C@@H](NC(=O)[C@H](Cc1ccccc1)NC(=O)[C@@H](NC(=O)CNC(=O)[C@H](Cc1c[nH]cn1)NC(=O)[C@H](CO)NC(=O)[C@@H](N)Cc1ccc(O)cc1)[C@@H](C)O)[C@@H](C)O)C(=O)N[C@@H](CC(=O)O)C(=O)NC(C)(C)C(=O)N[C@@H](CCCCN)C(=O)N[C@@H](CCCCNC(=O)CC[C@H](NC(=O)CC[C@H](NC(=O)COCCOCCNC(=O)CCCCCCCCCCCCCCCCCCC(=O)O)C(=O)O)C(=O)O)C(=O)N[C@@H](C)C(=O)N[C@@H](CCC(N)=O)C(=O)N[C@@H](CCC(=O)O)C(=O)N[C@@H](Cc1ccccc1)C(=O)N[C@H](C(=O)NC(C)(C)C(=O)N[C@@H](Cc1c[nH]c2ccccc12)C(=O)N[C@@H](CC(C)C)C(=O)N[C@@H](CCC(=O)O)C(=O)N[C@@H](CC(=O)O)C(=O)N[C@@H](CCC(=O)O)C(=O)N1CCC[C@H]1C(=O)N[C@@H](CO)C(=O)N[C@@H](CO)C(=O)NCC(=O)N[C@@H](C)C(=O)N1CCC[C@H]1C(=O)N1CCC[C@H]1C(=O)N1CCC[C@H]1C(=O)N[C@@H](CO)C(=O)O)C(C)C` [Compound A4] (H-YSHGTFTSDYSKYLD[Aib]KK([γGlu-γGlu-AEEA-C20 diacid])AQEFV[Aib]WLEDEPSSGAPPPS-OH; N-terminus assumed) was run?
A: 2 pM

Q: How did the EC50 [1] turn out when `CC(C)C[C@H](NC(=O)[C@H](Cc1ccc(O)cc1)NC(=O)[C@H](CCCCN)NC(=O)[C@H](CO)NC(=O)[C@H](Cc1ccc(O)cc1)NC(=O)[C@H](CC(=O)O)NC(=O)[C@H](CO)NC(=O)[C@@H](NC(=O)[C@H](Cc1ccccc1)NC(=O)[C@@H](NC(=O)CNC(=O)[C@H](Cc1c[nH]cn1)NC(=O)[C@H](CO)NC(=O)[C@@H](N)Cc1ccc(O)cc1)[C@@H](C)O)[C@@H](C)O)C(=O)N[C@@H](CCCCNC(=O)CC[C@H](NC(=O)CC[C@H](NC(=O)COCCOCCNC(=O)CCCCCCCCCCCCCCCCCCC(=O)O)C(=O)O)C(=O)O)C(=O)NC(C)(C)C(=O)N[C@@H](CCCCN)C(=O)N[C@@H](Cc1ccc(O)cc1)C(=O)N[C@@H](C)C(=O)N[C@@H](CCC(N)=O)C(=O)N[C@@H](CCC(=O)O)C(=O)N[C@@H](Cc1ccccc1)C(=O)N[C@H](C(=O)NC(C)(C)C(=O)N[C@@H](Cc1c[nH]c2ccccc12)C(=O)N[C@@H](CC(C)C)C(=O)N[C@@H](CCC(=O)O)C(=O)N[C@@H](CC(=O)O)C(=O)N[C@@H](CCC(=O)O)C(=O)N1CCC[C@H]1C(=O)N[C@@H](CO)C(=O)N[C@@H](CO)C(=O)NCC(=O)N[C@@H](C)C(=O)N1CCC[C@H]1C(=O)N1CCC[C@H]1C(=O)N1CCC[C@H]1C(=O)N[C@@H](CO)C(=O)O)C(C)C` [Compound A1] (H-YSHGTFTSDYSKYLK([γGlu-γGlu-AEEA-C20 diacid])[Aib]KYAQEFV[Aib]WLEDEPSSGAPPPS-OH) was run?
A: 3.16 pM

Q: For `CC(C)C[C@H](NC(=O)[C@H](Cc1ccc(O)cc1)NC(=O)[C@H](CCCCN)NC(=O)[C@H](CO)NC(=O)[C@H](Cc1ccc(O)cc1)NC(=O)[C@H](CC(=O)O)NC(=O)[C@H](CO)NC(=O)[C@@H](NC(=O)[C@H](Cc1ccccc1)NC(=O)[C@@H](NC(=O)CNC(=O)[C@H](Cc1c[nH]cn1)NC(=O)[C@H](CO)NC(=O)[C@@H](N)Cc1ccc(O)cc1)[C@@H](C)O)[C@@H](C)O)C(=O)N[C@@H](CC(=O)O)C(=O)NC(C)(C)C(=O)N[C@@H](CCCCN)C(=O)N[C@@H](Cc1ccc(O)cc1)C(=O)N[C@@H](C)C(=O)N[C@@H](CCCCNC(=O)CC[C@H](NC(=O)CC[C@H](NC(=O)COCCOCCNC(=O)CCCCCCCCCCCCCCCCCCC(=O)O)C(=O)O)C(=O)O)C(=O)N[C@@H](CCC(=O)O)C(=O)N[C@@H](Cc1ccccc1)C(=O)N[C@H](C(=O)NC(C)(C)C(=O)N[C@@H](Cc1c[nH]c2ccccc12)C(=O)N[C@@H](CC(C)C)C(=O)N[C@@H](CCC(=O)O)C(=O)N[C@@H](CC(=O)O)C(=O)N[C@@H](CCC(=O)O)C(=O)N1CCC[C@H]1C(=O)N[C@@H](CO)C(=O)N[C@@H](CO)C(=O)NCC(=O)N[C@@H](C)C(=O)N1CCC[C@H]1C(=O)N1CCC[C@H]1C(=O)N1CCC[C@H]1C(=O)N[C@@H](CO)C(=O)O)C(C)C` [Compound A5] (H-YSHGTFTSDYSKYLD[Aib]KYAK([γGlu-γGlu-AEEA-C20 diacid])EFV[Aib]WLEDEPSSGAPPPS-OH; N-terminus assumed), which EC50 [1] is on record?
A: 2.51 pM
